These results are taken from PMC8235783, “Radiopharmaceutical Formulation and Preclinical Testing of ^68Ga-Labeled DOTA-MGS5 for the Regulatory Approval of a First Exploratory Clinical Trial” (Pharmaceuticals, 2021).

A word on the IC50: it is the concentration that inhibits the measured activity by half. A low value points to inhibition by little substance. By tissue uptake is commonly meant the share of the injected amount in each gram of the tissue.

Series [1] deals with T1, CCK2R on A431-CCK2R cells (human CCK2R) (Homo sapiens, UniProt P32239).
T1 construct: expressed in transfected cells; host or cells: A431 human epidermoid carcinoma cells, stably transfected (provided by Dr. Luigi Aloj)
T1 sequence (P32239 1-447): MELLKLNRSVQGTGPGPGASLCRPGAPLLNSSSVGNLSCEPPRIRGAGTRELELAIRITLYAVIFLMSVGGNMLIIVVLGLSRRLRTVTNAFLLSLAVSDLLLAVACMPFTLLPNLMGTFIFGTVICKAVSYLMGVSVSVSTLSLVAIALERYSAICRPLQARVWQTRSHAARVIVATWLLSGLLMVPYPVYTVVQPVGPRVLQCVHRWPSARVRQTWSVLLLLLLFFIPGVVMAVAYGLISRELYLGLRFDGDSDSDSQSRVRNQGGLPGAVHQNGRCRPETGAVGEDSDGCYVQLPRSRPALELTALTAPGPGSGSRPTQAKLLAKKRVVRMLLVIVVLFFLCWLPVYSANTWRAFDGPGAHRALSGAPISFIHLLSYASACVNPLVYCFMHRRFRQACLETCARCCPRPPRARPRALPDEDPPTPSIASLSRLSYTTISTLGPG
Briefly: Receptor affinity competition assay against [125I][3-iodo-Tyr12,Leu15]gastrin-I. Format: binding. The following applies: competition against [125I][3-iodo-Tyr12,Leu15]gastrin-I on A431-CCK2R cells, 1 h at RT; n = 3 (Ga-DOTA-MGS5 n = 1).
Procedure: A431-CCK2R and A431-mock cells were cultured in Dulbecco’s Modified Eagle Medium (DMEM) and AR42J cells were cultured in RPMI-1640 medium, both supplemented with 10% (v/v) fetal bovine serum and 5 mL of a 100x penicillin–streptomycin–glutamine mixture at 37 °C in a humidified 95% air/5% CO2 atmosphere. Media and supplements were purchased from Invitrogen Corporation (Lofer, Austria).
Binding assays on A431-CCK2R cells were carried out as previously described [37]. The cells were incubated with increasing concentrations of the peptide conjugates and [^125I][3-iodo-Tyr^12,Leu^15]gastrin-I (~20,000 cpm) for 1 h at RT. Half-maximum inhibitory concentration (IC50) values were calculated after nonlinear regression using Origin software (Microcal Origin 6.1, Northampton, MA, USA).

Series [2] can be described thus: 14-day extended single-dose intravenous toxicity study in rats. Format: in vivo. On the procedure:
In the preclinical evaluation of the safety profile of DOTA-MGS5, a targeted approach was followed for the 14-day extended single-dose toxicity study conducted in male Wistar rats. Instead of performing the study in animals of both sexes at a single dose level, the non-clinical evaluation was confined to male animals, including, however, three different dose levels based on mg/kg scaling and body surface scaling (applying a factor of 6.2). Considering a maximum dose of 50 µg administered to patients and an exposure margin of 100-fold the clinical dose, a dose level of 0.5 mg/kg body weight was calculated for the study and used as medium dose. Two additional dose levels of 0.1 mg/kg body weight and 2.5 mg/kg body weight were selected to allow a more accurate evaluation of the safety profile. Based on the preclinical biodistribution studies, the stomach, pancreas, and kidneys were identified as the main target organs. In addition to these organs, the liver and colon as potential additional routes of excretion, as well as spleen and sternum (including bone marrow), were also included in the histopathological evaluation.
A NOAEL (no observed adverse effect level) of 2.5 mg/kg body weight was established from the study for the single administration of DOTA-MGS5. When considering body surface scaling from rats to humans, the NOAEL of 2.5 mg/kg body weight translates to a HED (human equivalent dose) of 0.4 mg/kg body weight. By applying a safety factor of 100, a maximum dose of 4 µg/kg body weight was established for human subjects receiving the initial clinical dose. For the first PET/CT examinations with ^68Ga-DOTA-MGS5, a maximum dose of 50 µg could be established as clinical dose, which remains well below the maximum dose of 4 µg/kg body weight.
The safety of the intravenous injection was tested for unlabeled DOTA-MGS5 in a GLP-compliant 14-day extended single-dose intravenous toxicity study in rats using the intravenous route of administration. The study was designed following a targeted microdose approach based on the ICH guideline M3 (R2) on non-clinical safety studies for the conduct of human clinical trials and marketing authorization for pharmaceuticals (EMA/CPMP/ICH/286/1995, December 2009), as well as the draft guideline on the non-clinical requirements for radiopharmaceuticals (EMA/CHMP/SWP/686140/2018, 15 November 2018). The study was conducted in a GLP-compliant laboratory (BSL BIOSERVICE Scientific Laboratories Munich GmbH, Planegg/Munich, Germany) using 60 6–7-week-old male healthy Wistar rats (Crl: WI(Han), Full Barrier, Charles River, Sulzfeld, Germany). […] Body weight and food consumption was determined on a weekly basis. […]

The nature of the next series: in vivo. The following applies: female, BALB/c, mouse, iv, 20 pmol peptide. On the procedure: The biodistribution profile of ^68Ga-DOTA-MGS5 in female BALB/c mice was evaluated for the time points of 5, 20, 60, and 90 min post injection (p.i.).
Biodistribution studies evaluating the pharmacokinetics and tissue distribution of ^68Ga-DOTA-MGS5 were performed in 6-week-old female BALB/c mice (n = 12). Groups of three mice for each time point were injected intravenously via a lateral tail vein with ~1 MBq of ^68Ga-DOTA-MGS5 corresponding to 20 pmol peptide. The mice were euthanized by cervical dislocation 5, 20, 60, and 90 min after injection and different tissues (blood, lung, heart, muscle, spleen, intestine, liver, kidneys, pancreas, stomach, and femur) were removed, weighed, and their radioactivity measured in a gamma-counter together with a standard and the residual body. Results were expressed as percentage of injected activity per organ (% IA) and per gram tissue (% IA/g).

In series [3] the target is T2, AR42J cells with physiological expression of rat CCK2R (Rattus norvegicus, UniProt P30553).
T2 construct: In AR42J cells with physiological expression of rat CCK2R; host or cells: AR42J rat pancreatic tumor cells
T2 sequence (P30553 1-452): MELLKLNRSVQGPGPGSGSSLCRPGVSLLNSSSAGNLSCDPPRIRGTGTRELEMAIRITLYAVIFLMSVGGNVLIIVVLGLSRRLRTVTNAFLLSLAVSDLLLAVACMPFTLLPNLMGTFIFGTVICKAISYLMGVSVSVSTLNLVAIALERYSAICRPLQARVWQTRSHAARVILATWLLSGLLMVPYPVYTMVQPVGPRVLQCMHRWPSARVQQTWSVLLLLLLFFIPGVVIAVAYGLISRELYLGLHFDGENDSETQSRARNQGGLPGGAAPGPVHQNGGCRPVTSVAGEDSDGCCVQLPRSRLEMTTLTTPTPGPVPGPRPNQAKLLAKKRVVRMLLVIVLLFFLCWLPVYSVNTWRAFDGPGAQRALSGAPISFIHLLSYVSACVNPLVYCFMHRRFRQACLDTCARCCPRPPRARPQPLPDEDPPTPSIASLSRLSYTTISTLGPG
The following applies: 4 h after incubation; cited from earlier work.

In series [4] the target is T3, A431-CCK2R cells (human CCK2R) (Homo sapiens, UniProt P32239).
T3 construct: expressed in transfected cells; host or cells: A431 human epidermoid carcinoma cells, stably transfected (provided by Dr. Luigi Aloj)
T3 sequence (P32239 1-447): T1 sequence (P32239 1-447)
The following applies: 1 h incubation; cited from earlier work. How it is done: For the time point of 1 h incubation, a cell internalization of ~20% was reported for ^177Lu-DOTA-PP-F11N in A431-CCK2R cells.

Setting [5] is: total radioactivity, uptake in blood.
The mark [6] stands for this setting: total radioactivity, uptake in femur.
The mark [7] stands for this setting: total radioactivity, uptake in heart.
The mark [8] stands for this setting: total radioactivity, uptake in intestine.
The mark [9] stands for this setting: total radioactivity, uptake in kidneys.
Setting [10] is: total radioactivity, uptake in liver.
Where [11] appears, read: total radioactivity, uptake in lung.
[12] abbreviates: total radioactivity, uptake in muscle.
Setting [13] is: total radioactivity, uptake in pancreas.
Setting [14] is: total radioactivity, uptake in spleen.
The mark [15] stands for this setting: total radioactivity, uptake in stomach.

`CCCC[C@@H](C(=O)N[C@@H](CC(=O)O)C(=O)N[C@@H](Cc1cccc2ccccc12)C(N)=O)N(C)C(=O)[C@H](Cc1c[nH]c2ccccc12)NC(=O)CNC(=O)[C@H](Cc1ccc(O)cc1)NC(=O)[C@H](C)NC(=O)[C@@H](CCC(=O)O)NC(=O)CN1CCN(CC(=O)O)CCN(CC(=O)O)CCN(CC(=O)O)CC1` [DOTA-MGS5, DOTA-DGlu-Ala-Tyr-Gly-Trp-(N-Me)Nle-Asp-1-Nal-NH2]: the IC50 in series [1] came out at 0.5 ± 0.1 nM. Also, the “treatment-related mortality or clinical symptoms” value in series [2] (i.v. 0.1, 0.5 and 2.5 mg/kg BW, male Wistar rats, until end of observation periods (2 and 14 days)) is recorded as “no treatment-related mortality or clinical symptoms occurred”. For the same molecule, in series [2] (rat, in vivo), the “HED (human equivalent dose)” value was determined as 0.4 mg/kg body weight and the “maximum dose for human subjects receiving the initial clinical dose” value is 4 µg/kg body weight.

For `CCCC[C@@H](C(=O)N[C@@H](CC(=O)O)C(=O)N[C@@H](Cc1cccc2ccccc12)C(N)=O)N(C)C(=O)[C@H](Cc1c[nH]c2ccccc12)NC(=O)CNC(=O)[C@H](Cc1ccc(O)cc1)NC(=O)[C@H](C)NC(=O)[C@@H](CCC(=O)O)NC(=O)CN1CCN(CC(=O)O)CCN(CC(=O)O)CCN(CC(=O)O)CC1` [^68Ga-DOTA-MGS5, metal not drawn], the uptake in blood in the series “in vivo” (1.5 h) was determined as 0.94 ± 0.08 % IA/g. Moreover, the tissue uptake dose at 5 min in the series “in vivo” (total radioactivity) worked out at 81.8 ± 2.5 %ID. The tissue uptake dose at 1.5 h in the series “in vivo” (total radioactivity) was found to be 11.4 ± 1.7 %ID. In addition, the tissue uptake at 5 min in the series “in vivo” (setting [5]) is 17.6 ± 3.01 %ID/g; in “in vivo” (setting [6]), 2.77 ± 0.34 %ID/g; in “in vivo” (setting [7]), 5.11 ± 0.07 %ID/g; in “in vivo” (setting [8]) it was 2.42 ± 0.21 %ID/g; in the series “in vivo” (setting [9]) it was 17.6 ± 2.79 %ID/g; in “in vivo” (setting [10]) it was 5.02 ± 0.06 %ID/g. In addition, the tissue uptake at 5 min in the series “in vivo” (setting [11]) was 8.51 ± 2.33 %ID/g; in the series “in vivo” (setting [12]), 2.89 ± 0.18 %ID/g; in “in vivo” (setting [13]), 4.03 ± 0.19 %ID/g; in the series “in vivo” (setting [14]), 3.53 ± 0.43 %ID/g; in “in vivo” (setting [15]), 6.63 ± 0.23 %ID/g. For the same molecule, the tissue uptake at 20 min in the series “in vivo” (setting [5]) worked out at 6.76 ± 1.17 %ID/g; in “in vivo” (setting [6]) it was 1.75 ± 0.93 %ID/g; in the series “in vivo” (setting [7]), 2.24 ± 0.57 %ID/g; in “in vivo” (setting [8]), 1.22 ± 0.25 %ID/g; in “in vivo” (setting [9]), 8.41 ± 1.33 %ID/g; in the series “in vivo” (setting [10]), 2.28 ± 0.31 %ID/g. Also, the tissue uptake at 20 min in “in vivo” (setting [11]) was found to be 3.78 ± 0.53 %ID/g; in the series “in vivo” (setting [12]), 1.03 ± 0.21 %ID/g; in “in vivo” (setting [13]), 2.17 ± 0.16 %ID/g; in “in vivo” (setting [14]), 1.7 ± 0.38 %ID/g; in the series “in vivo” (setting [15]), 4.09 ± 0.98 %ID/g. In addition, the tissue uptake at 1 h in “in vivo” (setting [5]) was 1.99 ± 0.22 %ID/g; in the series “in vivo” (setting [6]), 0.62 ± 0.09 %ID/g; in “in vivo” (setting [7]), 0.7 ± 0.16 %ID/g; in the series “in vivo” (setting [8]), 0.75 ± 0.17 %ID/g; in “in vivo” (setting [9]), 5.11 ± 0.33 %ID/g; in “in vivo” (setting [10]), 1.21 ± 0.12 %ID/g. Besides, the tissue uptake at 1 h in the series “in vivo” (setting [11]) was found to be 1.1 ± 0.11 %ID/g; in the series “in vivo” (setting [12]), 0.49 ± 0.19 %ID/g; in the series “in vivo” (setting [13]), 1.5 ± 0.38 %ID/g; in “in vivo” (setting [14]), 0.71 ± 0.05 %ID/g; in the series “in vivo” (setting [15]), 4.63 ± 0.65 %ID/g. Further, the tissue uptake at 1.5 h in the series “in vivo” (setting [5]) amounted to 0.9 ± 0.1 %ID/g; in the series “in vivo” (setting [6]), 0.55 ± 0.09 %ID/g; in “in vivo” (setting [7]), 0.35 ± 0.02 %ID/g; in the series “in vivo” (setting [8]) it was 0.62 ± 0.08 %ID/g; in the series “in vivo” (setting [9]) it was 4.6 ± 0.32 %ID/g; in “in vivo” (setting [10]), 1 ± 0.06 %ID/g. The tissue uptake at 1.5 h was 0.59 ± 0.1 %ID/g in “in vivo” (setting [11]); 0.18 ± 0.04 %ID/g in the series “in vivo” (setting [12]); 1.42 ± 0.3 %ID/g in the series “in vivo” (setting [13]); 0.69 ± 0.09 %ID/g in the series “in vivo” (setting [14]); 4.12 ± 0.3 %ID/g in the series “in vivo” (setting [15]). In addition, in series [2] (rat, in vivo), the “maximum dose established as clinical dose” value is 50 µg.

With “DOTA-(DGlu)6-Ala-Tyr-Gly-Trp-Met-Asp-Phe-NH2 [^111In-CP04, minigastrin analog radiolabeled with indium-111, in clinical studies]”, in series [3], the cell uptake is 14.4 ± 0.8%.

For “DOTA-(DGlu)6-Ala-Tyr-Gly-Trp-Nle-Asp-Phe-NH2 [^177Lu-DOTA-PP-F11N, minigastrin analog radiolabeled with lutetium-177, in clinical studies]”, the cell internalization in series [4] was ~ 20%.

As to “Ga-DOTA-MGS5: DOTA-MGS5 labeled with the stable isotope of gallium, reference standard”, the IC50 in series [1] turned out to be 0.5 ± 0.1 nM.
